Target: T1, Recombinant human DGAT2 protein (Homo sapiens, UniProt Q96PD7)
T1 construct: FLAG (DYKDDDDK); (N); made in house; host or cells: Sf-21 insect cells (BacPAK baculovirus system); used as a membrane preparation
T1 sequence (Q96PD7 1-388): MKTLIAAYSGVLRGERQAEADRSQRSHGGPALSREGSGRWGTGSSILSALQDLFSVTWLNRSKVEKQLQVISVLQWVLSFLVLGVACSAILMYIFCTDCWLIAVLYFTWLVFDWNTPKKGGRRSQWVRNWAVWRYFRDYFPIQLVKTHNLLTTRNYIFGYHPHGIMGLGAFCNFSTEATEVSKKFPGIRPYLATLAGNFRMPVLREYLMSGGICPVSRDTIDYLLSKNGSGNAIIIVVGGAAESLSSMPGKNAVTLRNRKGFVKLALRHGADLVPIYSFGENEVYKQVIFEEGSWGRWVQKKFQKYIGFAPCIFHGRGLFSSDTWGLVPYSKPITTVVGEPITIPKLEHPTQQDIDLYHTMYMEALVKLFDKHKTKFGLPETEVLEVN
Assay: Measurement of inhibitory effect against DGAT2 enzyme activity (SPA, Phospholipid FlashPlate, [14C]-TG production)
Type: biochemical
Settings: concentration inhibiting [14C]-labeled triacyl glycerol (TG) production by 50%; 2 μg DGAT2-membrane protein from Sf-21 cells, 37° C.
Method: Experimental Example: Measurement of Inhibitory Effect Against DGAT2 Enzyme Activity
In order to prepare the pBacPAK9-DGAT2, which is DGAT2 expression vector, the human DGAT2 gene amplified by polymerase chain reaction (PCR) was cloned into the EcoR1 and Xho1 sites of the pBacPAK9 (clonctech) vector. The nucleotide sequence of the primers used in PCR was the forward primer 5′ […] and the reverse primer 5′ […]. The composition of the reaction solution was to contain 50 ng of cDNA clone (OriGene), 200 μM of dATP, dCTP, dTTP, dGTP, 200 nM of each primer, 1 unit of Tag DNA Polymerase (Toyobo), 1×PCR buffer, and the final volume was adjusted to 20 μl. The reaction conditions were denatured at 95° C. for 5 minutes, followed by 30 times of 94° C. for 20 seconds, 60° C. for 20 seconds, and 72° C. for 90 seconds, followed by further reaction at 72° C. for 7 minutes.
Recombinant human DGAT2 protein was expressed in Sf-21 cells, which are insect cells, by using the BacPack baculovirus expression system (Clontech). The brief manufacturing process is as follows. First, the pBacPAK9-DGAT2 expression vector was transfected with BacPAK6 virus DNA (Bsu36I digest) into sf21 cells using Bacfectin to prepare a recombinant DGAT2 expressing baculovirus. The thus prepared baculovirus was infected with Sf-21 cells at 10 MOI (multiplicity of infection), and after 72 hours, infected insect cells were collected and membrane proteins were isolated. For membrane protein separation, the cell pellet was dissolved in a sucrose solution containing 250 mM sucrose, 10 mM Tris (pH 7.4), and 1 mM ethylenediamine-tetraacetic acid (EDTA), and then homogenized by using a dounce homogenizer, and the supernatant was taken by centrifuging at 600×g for 15 minutes, and centrifuged at 100,000×g for 1 hour to discard the supernatant, and the remaining pellet was resuspended in 20 mM HEPES buffer (pH 7.4). The prepared DGAT2 overexpressing membrane protein was dispensed in 100 μl and stored at −80° C. until use. Protein concentration was quantified by using the BCA Protein Assay Kit (Thermo Scientific).
In vitro DGAT2 analysis was performed using a Phospholipid Flash Plate (PerkinElmer) based on the principle of SPA (Scintillation Proximity Assay). First, DGAT2 inhibition compounds serially diluted 5 times from 3 nM to 10 μM (final concentration, 1% DMSO) were mixed in a buffer solution containing 2 μg DGAT2-membrane protein and 20 mM HEPES, 20 mM MgCl2, 1 mg/mL BSA, 50 μM 1,2 sn-oleoyl glycerol (Sigma), put in a 96-well flash plate (FlashPlate) and reacted at 37° C. for 20 minutes, and then 1 μM [14C] ole oil CoA (PerkinElmer, NEC651050UC) was added to be a final volume of 100 μL and further reacted at 37° C. for 15 minutes. After the enzymatic reaction was completed, 100 μL of isopropanol was added, the plate was sealed with a film, and the plate was shaken slowly in a plate shaker. The next day, the amplified scintillation signal (cpm) in Topcounter (Packard) was measured to measure the degree of production of [14C]-labeled triacyl glycerol (TG) as a reaction product. The measured value when the compound was not treated was used as a positive control, and the measured value of the compound treated group was calculated as a relative % to measure the inhibition effect of the compound on TG production.

| IC50 [nM] | SMILES |
| --- | --- |
| > 10000 | CC(C)Oc1ccccc1O[C@@H]1CCCN(c2cncc(NC(=O)Cc3ccc(CC(=O)O)cc3)n2)C1 [Example 90, (R)-2-(4-(2-((6-(3-(2-isopropoxyphenoxy)piperidin-1-yl)pyrazin-2-yl)amino)-2-oxoethyl)phenyl)acetic acid] |
| 2700 | CCOc1ccccc1O[C@@H]1CCCN(c2cccc(NC(=O)Cc3ccc(CC(=O)O)cc3)n2)C1 [Example 66, (R)-2-(4-(2-((6-(3-(2-ethoxyphenoxy)piperidin-1-yl)pyridin-2-yl)amino)-2-oxoethyl)phenyl)acetic acid] |
| 330 | CCOc1ccccc1O[C@@H]1CCCN(c2nccc(NC(=O)C(C)(C)c3ccc(CC(C)(C)C(=O)O)cc3)n2)C1 [Example 124, (R)-3-(4-(1-((2-(3-(2-ethoxyphenoxy)piperidin-1-yl)pyrimidin-4-yl)amino)-2-methyl-1-oxopropan-2-yl)phenyl)-2,2-dimethylpropanoic acid] |
| 54 | CCOc1ccccc1O[C@@H]1CCCN(c2cncc(NC(=O)Cc3cccc(C(F)(F)F)c3)n2)C1 [Example 26] |
| > 10000 | CCOc1ccccc1O[C@@H]1CCCN(c2cncc(NC(=O)C3CCN(C(=O)CCC(=O)O)CC3)n2)C1 [Example 83, (R)-4-(4-((6-(3-(2-ethoxyphenoxy)piperidin-1-yl)pyrazin-2-yl)carbamoyl)piperidin-1-yl)-4-oxobutanoic acid] |
| 100 | CCOc1cccnc1O[C@@H]1CCCN(c2cncc(NC(=O)CCc3cccc(CC(C)(C)C(=O)O)c3)n2)C1 [Example 128, (R)-3-(3-(3-((6-(3-((3-ethoxypyridin-2-yl)oxy)piperidin-1-yl)pyrazin-2-yl)amino)-3-oxopropyl)phenyl)-2,2-dimethylpropanoic acid] |
| 45 | CCOc1ccccc1O[C@@H]1CCCN(c2cncc(NC(=O)Nc3cc(C(F)(F)F)cc(C(F)(F)F)c3)n2)C1 [Example 1, (R)-1-(3,5-bis(trifluoromethyl)phenyl)-3-(6-(3-(2-ethoxyphenoxy)piperidin-1-yl)pyrazin-2-yl)urea] |
| 3100 | CCOc1ccccc1O[C@@H]1CCCN(c2cncc(NC(=O)/C=C/c3ccc(C(=O)O)cc3)n2)C1 [Example 41, (R,E)-4-(3-((6-(3-(2-ethoxyphenoxy)piperidin-1-yl)pyrazin-2-yl)amino)-3-oxoprop-1-en-1-yl)benzoic acid] |
| 660 | CCOc1ccccc1O[C@@H]1CCCN(c2cncc(NC(=O)Cc3ccc(O[C@@H](C)C(=O)O)cc3)n2)C1 [Example 104, (S)-2-(4-(2-((6-((R)-3-(2-ethoxyphenoxy)piperidin-1-yl)pyrazin-2-yl)amino)-2-oxoethyl)phenoxy)propanoic acid] |
| 450 | CCOc1ccccc1O[C@@H]1CCCN(c2cncc(NC(=O)Cc3ccc(OCC(C)(C)C(=O)O)cc3)n2)C1 [Example 102] |
| 230 | CCOc1ccccc1O[C@@H]1CCCN(c2cncc(NC(=O)c3cccc(OC)c3)n2)C1 [Example 8, (R)—N-(6-(3-(2-ethoxyphenoxy)piperidin-1-yl)pyrazin-2-yl)-3-methoxybenzamide] |
| 7400 | CCOc1ccccc1O[C@@H]1CCCN(c2cncc(N3C(=O)CC(C)(C)C3=O)n2)C1 [Example 23, (R)-1-(6-(3-(2-ethoxyphenoxy)piperidin-1-yl)pyrazin-2-yl)-3,3-dimethylpyrrolidine-2,5-dione] |
| 420 | CCOc1ccccc1O[C@@H]1CCCN(c2cncc(NC(=O)CCc3ccc(OC(C)(C)C(=O)O)cc3)n2)C1 [Example 60, (R)-2-(4-(3-((6-(3-(2-ethoxyphenoxy)piperidin-1-yl)pyrazin-2-yl)amino)-3-oxopropyl)phenoxy)-2-methylpropanoic acid] |
| 390 | CCOc1ccccc1O[C@@H]1CCCN(c2cncc(NC(=O)C3CCN(C(C)=O)CC3)n2)C1 [Example 16] |
| 70 | CCOc1ccccc1O[C@@H]1CCCN(c2cncc(NC(=O)Cc3ccc(OCc4ccc(C(C)(C)C(=O)O)cc4)cc3)n2)C1 [Example 107, (R)-2-(4-((4-(2-((6-(3-(2-ethoxyphenoxy)piperidin-1-yl)pyrazin-2-yl)amino)-2-oxoethyl)phenoxy)methyl)phenyl)-2-methylpropanoic acid] |
| 12000 | CCOc1ccccc1O[C@@H]1CCCN(c2cncc(NC(=O)c3ccc(OC(C)(C)C(=O)O)cc3)n2)C1 [Example 14, (R)-2-(4-((6-(3-(2-ethoxyphenoxy)piperidin-1-yl)pyrazin-2-yl)carbamoyl)phenoxy)-2-methylpropanoic acid] |
| 280 | CCOc1ccccc1O[C@@H]1CCCN(c2cncc(NC(=O)CCc3cc(C)c(C(=O)O)c(C)c3)n2)C1 [Example 55, (R)-4-(3-((6-(3-(2-ethoxyphenoxy)piperidin-1-yl)pyrazin-2-yl)amino)-3-oxopropyl)-2,6-dimethylbenzoic acid] |
| 60 | CCOc1ccccc1O[C@@H]1CCCN(c2nccc(NC(=O)CCc3ccc(C(C)(C)C(=O)O)cc3)n2)C1 [Example 122, (R)-2-(4-(3-((2-(3-(2-ethoxyphenoxy)piperidin-1-yl)pyrimidin-4-yl)amino)-3-oxopropyl)phenyl)-2-methylpropanoic acid] |
| 1300 | CCOc1ccccc1O[C@@H]1CCCN(c2cncc(NC(=O)/C(C)=C/c3ccc(C(=O)O)cc3)n2)C1 [Example 42, (R,E)-4-(3-((6-(3-(2-ethoxyphenoxy)piperidin-1-yl)pyrazin-2-yl)amino)-2-methyl-3-oxoprop-1-en-1-yl)benzoic acid] |
| 4000 | CCOc1ccccc1O[C@@H]1CCCN(c2cncc(NC(=O)c3ccc(CC(=O)O)cc3)n2)C1 [Example 12, (R)-2-(4-((6-(3-(2-ethoxyphenoxy)piperidin-1-yl)pyrazin-2-yl)carbamoyl)phenyl)acetic acid] |
| 590 | CCOc1ccccc1O[C@@H]1CCCN(c2cncc(NC(=O)C3(C)CCN(c4ccc(C(=O)O)cn4)C3)n2)C1 (stereo partly drawn) [Example 89, 6-(3-((6-((R)-3-(2-ethoxyphenoxy)piperidin-1-yl)pyrazin-2-yl)carbamoyl)-3-methylpyrrolidin-1-yl)nicotinic acid] |
| 730 | CCOc1ccccc1O[C@@H]1CCCN(c2nccc(NC(=O)Cc3ccc(OC(C)(C)C(=O)O)cc3)n2)C1 [Example 106, (R)-2-(4-(2-((2-(3-(2-ethoxyphenoxy)piperidin-1-yl)pyrimidin-4-yl)amino)-2-oxoethyl)phenoxy)-2-methylpropanoic acid] |

| SMILES | IC50 [nM] |
| --- | --- |
| CC(C)(C(=O)O)c1ccc(CCC(=O)Nc2cncc(N3CCC[C@@H](Oc4ccccc4OC4CCC4)C3)n2)cc1 [Example 98, (R)-2-(4-(3-((6-(3-(2-cyclobutoxyphenoxy)piperidin-1-yl)pyrazin-2-yl)amino)-3-oxopropyl)phenyl)-2-methylpropanoic acid] | 81 |
| CC(C)(Cc1ccc(CC(=O)Nc2cncc(N3CCC[C@@H](Oc4ccccc4OC4CCC4)C3)n2)cc1)C(=O)O [Example 96, (R)-3-(4-(2-((6-(3-(2-cyclobutoxyphenoxy)piperidin-1-yl)pyrazin-2-yl)amino)-2-oxoethyl)phenyl)-2,2-dimethylpropanoic acid] | 200 |

— US12637440B2, “Amide derivative useful as diacylglycerol acyltransferase 2 inhibitor, and use thereof” (LG CHEM, LTD., priority 2019, dated 2026)
